Test results from patent US20100056524A1, “Compound” (priority 2008, published 2010).
Structures can show the parent of a compound that is named as a salt.

Target: T1, TBK1 (Homo sapiens, UniProt Q9UHD2)
T1 construct: All protein kinases were of human origin and encoded full length proteins, unless indicated otherwise; His6; made in house; host or cells: insect Sf21 cells
T1 sequence (Q9UHD2 1-729): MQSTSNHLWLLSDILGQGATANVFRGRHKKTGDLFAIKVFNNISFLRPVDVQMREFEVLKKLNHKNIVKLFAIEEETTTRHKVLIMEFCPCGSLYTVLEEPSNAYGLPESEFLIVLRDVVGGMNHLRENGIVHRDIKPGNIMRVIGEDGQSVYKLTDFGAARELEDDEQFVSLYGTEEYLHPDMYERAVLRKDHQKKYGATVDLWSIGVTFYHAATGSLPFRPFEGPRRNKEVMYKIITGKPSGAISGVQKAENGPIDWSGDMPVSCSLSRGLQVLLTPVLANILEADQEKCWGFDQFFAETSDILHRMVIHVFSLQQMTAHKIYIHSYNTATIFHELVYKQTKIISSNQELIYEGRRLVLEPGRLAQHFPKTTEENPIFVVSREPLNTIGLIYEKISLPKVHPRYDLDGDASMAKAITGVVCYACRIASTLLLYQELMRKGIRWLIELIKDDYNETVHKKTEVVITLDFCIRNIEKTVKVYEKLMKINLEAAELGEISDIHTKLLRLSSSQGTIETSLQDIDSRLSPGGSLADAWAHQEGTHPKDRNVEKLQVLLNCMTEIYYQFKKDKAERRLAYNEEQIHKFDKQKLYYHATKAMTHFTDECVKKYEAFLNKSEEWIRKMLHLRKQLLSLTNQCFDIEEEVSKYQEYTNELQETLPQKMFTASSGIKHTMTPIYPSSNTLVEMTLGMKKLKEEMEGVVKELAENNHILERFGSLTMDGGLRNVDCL
Test: TBK1 protein kinase assay ([γ-33P]ATP, P81 filterplates)
Format: biochemical
Conditions: 50 μM ATP; read-out: Potency (TBK1 IC50 potency score)
Procedure, shortened: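 Human TBK1 assayed for 30 min with peptide substrate (300 μM), 50 μM [γ-33P]ATP and 10 mM magnesium acetate in 50 mM Tris/HCl pH 7.5, 0.1 mM EGTA, 0.1% 2-mercaptoethanol. Stopped with orthophosphoric acid and counted on P81 filters. IC50 from 10 compound concentrations.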

| IC50 [nM] | SMILES |
| --- | --- |
| < 100 | O=C(NCCCNc1nc(Nc2ccc(CO)nc2)ncc1C1CC1)C1CCC1 [Example 103, Cyclobutanecarboxylic acid {3-[5-cyclopropyl-2-(6-hydroxymethyl-pyridin-3-ylamino)-pyrimidin-4-ylamino]-propyl}-amide] |
| 100 to 1000 | CN(CCCNC(=O)C1CCC1)c1nc(Nc2cccc(F)c2)ncc1C1CC1 [Example 106, Cyclobutanecarboxylic acid (3-{[5-cyclopropyl-2-(3-fluoro-phenylamino)-pyrimidin-4-yl]-methyl-amino}-propyl)-amide] |
| 100 to 1000 | Cc1cccn(CCCNc2nc(Nc3cccc(F)c3)ncc2C2CC2)c1=O [Example 111, 1-{3-[5-Cyclopropyl-2-(3-fluoro-phenylamino)-pyrimidin-4-ylamino]-propyl}-3-methyl-H-pyridin-2-one] |
| 100 to 1000 | O=c1c(C(F)(F)F)cccn1CCCNc1nc(Nc2cccc(F)c2)ncc1C1CC1 [Example 114, 1-{3-[5-Cyclopropyl-2-(3-fluoro-phenylamino)-pyrimidin-4-ylamino]-propyl}-3-trifluoromethyl-1H-pyridin-2-one] |
| < 100 | O=C(NCCCNc1nc(Nc2ccc(-c3cncnc3)nc2)ncc1C1CC1)C1CCC1 [Example 116, Cyclobutanecarboxylic acid {3-[5-cyclopropyl-2-(6-pyrimidin-5-yl-pyridin-3-ylamino)-pyrimidin-4-ylamino]-propyl}-amide] |
| < 100 | O=C(NCCCNc1nc(Nc2ccc(-c3ccncc3)nc2)ncc1C1CC1)C1CCC1 [Example 119, Cyclobutanecarboxylic acid {3-[2-([2,4′]bipyridinyl-5-ylamino)-5-cyclopropyl-pyrimidin-4-ylamino]-propyl}-amide] |
| < 100 | O=C(NCCCNc1nc(Nc2cccc(C(=O)N3CCCC3)c2)ncc1C1CC1)C1CCC1 [Example 124, Cyclobutanecarboxylic acid (3-{5-cyclopropyl-2-[3-(pyrrolidine-1-carbonyl)-phenylamino]-pyrimidin-4-ylamino}-propyl)-amide] |
| < 100 | CN(C)[C@H]1CCN(C(=O)c2cccc(Nc3ncc(C4CC4)c(NCCCNC(=O)C4CCC4)n3)c2)C1 [Example 125, Cyclobutanecarboxylic acid (3-{5-cyclopropyl-2-[3-((S)-3-dimethylamino-pyrrolidine-1-carbonyl)-phenylamino]-pyrimidin-4-ylamino}-propyl)-amide] |
| < 100 | CN(C)[C@@H]1CCN(C(=O)c2cccc(Nc3ncc(C4CC4)c(NCCCNC(=O)C4CCC4)n3)c2)C1 [Example 126, Cyclobutanecarboxylic acid (3-{5-cyclopropyl-2-[3-((R)-3-dimethylamino-pyrrolidine-1-carbonyl)-phenylamino]-pyrimidin-4-ylamino}-propyl)-amide] |
| < 100 | O=C(NCCCNc1nc(Nc2ccc3cn[nH]c3c2)ncc1C1CC1)C1CCC1 [Example 129, Cyclobutanecarboxylic acid {3-[5-cyclopropyl-2-(1H-indazol-6-ylamino)-pyrimidin-4-ylamino]-propyl}-amide. Hydrochloride] |

More lines, now with the values behind:

| SMILES | IC50 [nM] |
| --- | --- |
| O=C(NCCCNc1nc(Nc2ccc(CN3CCOCC3)nc2)ncc1C1CC1)C1CCC1 [Example 104, Cyclobutanecarboxylic acid {3-[5-cyclopropyl-2-(6-morpholin-4-ylmethyl-pyridin-3-ylamino)-pyrimidin-4-ylamino]-propyl}-amide] | < 100 |
| O=C(NCCCOc1nc(Nc2cccc(F)c2)ncc1C1CC1)C1CCC1 [Example 105] | 100 to 1000 |
| CN(CCCNc1nc(Nc2cccc(F)c2)ncc1C1CC1)C(=O)C1CCC1 [Example 107, Cyclobutanecarboxylic acid {3-[5-cyclopropyl-2-(3-fluoro-phenylamino)-pyrimidin-4-ylamino]-propyl}-methyl-amide] | < 100 |
| CCCC(=O)NCCCNc1nc(Nc2cccc(F)c2)ncc1C1CC1 [Example 108] | < 100 |
| CN(CCCNc1nc(Nc2ccc(N3CCOCC3)nc2)ncc1C1CC1)C(=O)C1CCC1 [Example 109, Cyclobutanecarboxylic acid {3-[5-cyclopropyl-2-(6-morpholin-4-yl-pyridin-3-ylamino)-pyrimidin-4-ylamino]-propyl}-methyl-amide] | < 100 |
| O=C1CCCCN1CCCNc1nc(Nc2cccc(F)c2)ncc1C1CC1 [Example 110] | 100 to 1000 |
| CN1CCN(CCCNc2nc(Nc3cccc(F)c3)ncc2C2CC2)C1=O [Example 112, 1-{3-[5-Cyclopropyl-2-(3-fluoro-phenylamino)-pyrimidin-4-ylamino]-propyl}-3-methyl-imidazolidin-2-one] | 100 to 1000 |
| CC1(C)CCN(CCCNc2nc(Nc3cccc(F)c3)ncc2C2CC2)C1=O [Example 113, 1-{3-[5-Cyclopropyl-2-(3-fluoro-phenylamino)-pyrimidin-4-ylamino]-propyl}-3,3-dimethyl-pyrrolidin-2-one] | 100 to 1000 |
| Cn1cc(-c2ccc(Nc3ncc(C4CC4)c(NCCCNC(=O)C4CCC4)n3)cn2)cn1 [Example 115, Cyclobutanecarboxylic acid (3-{5-cyclopropyl-2-[6-(1-methyl-1H-pyrazol-4-yl)-pyridin-3-ylamino]-pyrimidin-4-ylamino}-propyl)-amide] | < 100 |
| O=C(NCCCNc1nc(Nc2cccc(-c3cncnc3)c2)ncc1C1CC1)C1CCC1 [Example 117, Cyclobutanecarboxylic acid {3-[5-cyclopropyl-2-(3-pyrimidin-5-yl-phenylamino)-pyrimidin-4-ylamino]-propyl}-amide] | < 100 |
| O=C(NCCCNc1nc(Nc2ccc(-c3cn[nH]c3)nc2)ncc1C1CC1)C1CCC1 [Example 118, Cyclobutanecarboxylic acid (3-{5-cyclopropyl-2-[6-(1H-pyrazol-4-yl)-pyridin-3-ylamino]-pyrimidin-4-ylamino}-propyl)-amide] | < 100 |
| O=C(NCCCNc1nc(Nc2ccc(-c3cccnc3)nc2)ncc1C1CC1)C1CCC1 [Example 120, Cyclobutanecarboxylic acid {3-[2-([2,3′]bipyridinyl-5-ylamino)-5-cyclopropyl-pyrimidin-4-ylamino]-propyl}-amide] | < 100 |
| O=C(NCCCNc1nc(Nc2cccc(-c3ccncc3)c2)ncc1C1CC1)C1CCC1 [Example 121, Cyclobutanecarboxylic acid {3-[5-cyclopropyl-2-(3-pyridin-4-yl-phenylamino)-pyrimidin-4-ylamino]-propyl}-amide] | < 100 |
| CN1CCN(Cc2cccc(Nc3ncc(C4CC4)c(NCCCNC(=O)C4CCC4)n3)c2)CC1 [Example 122, Cyclobutanecarboxylic acid (3-{5-cyclopropyl-2-[3-(4-methyl-piperazin-1-ylmethyl)-phenylamino]-pyrimidin-4-ylamino}-propyl)-amide] | < 100 |
| CC(c1cccc(Nc2ncc(C3CC3)c(NCCCNC(=O)C3CCC3)n2)c1)N1CCOCC1 (stereo not drawn) [Example 123, Cyclobutanecarboxylic acid (3-{5-cyclopropyl-2-[3-(1-morpholin-4-yl-ethyl)-phenylamino]-pyrimidin-4-ylamino}-propyl)-amide] | < 100 |
| CN1CCN(C(=O)Cc2cccc(Nc3ncc(C4CC4)c(NCCCNC(=O)C4CCC4)n3)c2)CC1 [Example 127, Cyclobutanecarboxylic acid [3-(5-cyclopropyl-2-{3-[2-(4-methyl-piperazin-1-yl)-2-oxo-ethyl]-phenylamino}-pyrimidin-4-ylamino)-propyl]-amide] | < 100 |
| CN(C)C1CCN(C(=O)Cc2cccc(Nc3ncc(C4CC4)c(NCCCNC(=O)C4CCC4)n3)c2)CC1 [Example 128, Cyclobutanecarboxylic acid [3-(5-cyclopropyl-2-{3-[2-(4-dimethylamino-piperidin-1-yl)-2-oxo-ethyl]-phenylamino}-pyrimidin-4-ylamino)-propyl]-amide] | < 100 |
| O=C(NCCCNc1nc(Nc2ccc3[nH]ncc3c2)ncc1C1CC1)C1CCC1 [Example 130, Cyclobutanecarboxylic acid {3-[5-cyclopropyl-2-(1H-indazol-5-ylamino)-pyrimidin-4-ylamino]-propyl}-amide] | < 100 |
| O=C(NCCCNc1nc(Nc2cccc(CN3CCCC3)c2)ncc1C1CC1)C1CCC1 [Example 131, Cyclobutanecarboxylic acid {3-[5-cyclopropyl-2-(3-pyrrolidin-1-ylmethyl-phenylamino)-pyrimidin-4-ylamino]-propyl}-amide] | < 100 |
| CN(Cc1cccc(Nc2ncc(C3CC3)c(NCCCNC(=O)C3CCC3)n2)c1)C1CCCC1 [Example 132, Cyclobutanecarboxylic acid [3-(2-{3-[(cyclopentyl-methyl-amino)-methyl]-phenylamino}-5-cyclopropyl-pyrimidin-4-ylamino)-propyl]-amide] | < 100 |
